The values below come from US20230355646A1, “AUTOPHAGY ACTIVATOR” (Resonac Corporation, priority 2020, published 2023).

What all share (format): cell-based
One assay deals with LC3 gene. As to the kind of experiment: LC3 gene expression promoting effect in human senescent fibroblasts (quantitative real-time PCR). The protocol:
(§1) Normal human fibroblasts (NB1RGB, RIKEN BRC Cell Bank) were cultured until confluent in D-MEM medium (manufactured by Sigma-Aldrich) to which 10% fetal bovine serum (manufactured by MP Biomedicals) was added. Thereafter, the cells were treated with 250 μM aqueous hydrogen peroxide for 2 hours, and cultured for 24 hours in D-MEM medium to which fresh 10% fetal bovine serum was added. The treatment with aqueous hydrogen peroxide and the cell culture operation were repeated three times, and the obtained fibroblasts were used as senescent fibroblasts.
(§2) The prepared senescent fibroblasts were prepared at a seeding density of 10000 cells/cm^2 and cultured for 24 hours in D-MEM medium (manufactured by Sigma-Aldrich) to which 10% fetal bovine serum (manufactured by MP Biomedicals) was added. […]
(§3) Then, using Nucleospin (registered trademark) RNA kit (manufactured by Takara Bio Inc.), RNA was extracted from senescent fibroblasts or normal human fibroblasts in each example, and cDNA was synthesized from the obtained RNA. Next, using this cDNA as a template, by quantitative real-time PCR, the expression level of each gene was quantified using primers (manufactured by Takara Bio Inc.) specific to the LC3 gene, ATG5 gene, and ATG7 gene, respectively. […]
(In qPCR the cycle at which signal appears reflects the starting amount.)

For another assay, the system named is mTOR gene. As to the kind of experiment: mTOR gene expression suppression effect in human senescent fibroblasts (quantitative real-time PCR). On the procedure: as §1, §2
Then, using Nucleospin (registered trademark) RNA kit (manufactured by Takara Bio Inc.), RNA was extracted from senescent fibroblasts or normal human fibroblasts in each example, and cDNA was synthesized from the obtained RNA. Next, using this cDNA as a template, by quantitative real-time PCR, the expression level of mTOR gene was quantified using primers (manufactured by Takara Bio Inc.) specific to mTOR gene. […]

The next assay has as its system ATG7 gene. The assay can be described thus: ATG7 gene expression promoting effect in human senescent fibroblasts (quantitative real-time PCR). On the procedure: as §1, §2, §3
The mark [1] stands for this setting: 10^−2% (V/V) methyl hesperidin or hesperidin, additional ingredient where in the example, 24 hours, Comparative Example 1 (DMSO) = 1.00.
Where [2] appears, read: compared to DMSO only of Comparative Example 1.

Take `COc1ccc([C@@H]2CC(=O)c3c(O)cc(O[C@@H]4O[C@H](CO[C@@H]5O[C@@H](C)[C@H](O)[C@@H](O)[C@H]5O)[C@@H](O)[C@H](O)[C@H]4O)cc3O2)cc1O` [Comparative Example 2, hesperidin]: in the assay with LC3 gene (setting [1]), the “Relative gene expression level LC3” value is on record as below 0. In addition, the “expression level of the LC3 gene (in words)” value with LC3 gene (setting [2]) was “more decreased”. Besides, the “Relative gene expression level mTOR” value in the assay on mTOR gene (10^−2% (V/V) methyl hesperidin or hesperidin, additional ingredient where in the example, 24 hours, Comparative Example 3 (DMSO) = 1.00) stood at 1.16. Further, the “expression level of mTOR gene (in words)” value in the assay with mTOR gene (compared to DMSO only of Comparative Example 3) is listed as “almost the same”. In addition, the “Relative gene expression level ATG7” value in the assay on ATG7 gene (setting [1]) was found to be 0.76. Also, the “expression level of the ATG7 gene (in words)” value with ATG7 gene (setting [2]) is listed as “more decreased”.
